In PMC8634693 (European Journal of Medicinal Chemistry, 2021):
Entries after “also recorded” stand apart in the source; their conditions may differ.

What was measured:
SARS-CoV-2 3CL^pro [1] = molecular target: T1, SARS-CoV-2 3CL^pro (Severe acute respiratory syndrome coronavirus 2, UniProt P0DTD1); type: biochemical
[2] = Phase I metabolic stability in human liver microsomes
SARS-CoV-2 3CL^pro [3] = molecular target: T1, SARS-CoV-2 3CL^pro; type: biochemical; remark: listed apart in the source
[4] = Gastrointestinal stability in simulated gastric fluid; type: in vitro ADME; conditions: 20 μM, 37 °C, in 90 min
[5] = Phase II metabolic stability; conditions: human liver microsomes, in the presence of UDPGA
[6] = Plasma stability in human plasma; type: in vitro ADME; conditions: 37 °C, up to 12 h

Structure (SMILES) | inhibitory activity against SARS-CoV-2 3CLpro, in words (SARS-CoV-2 3CL^pro [1]) | other results
CC(=O)OCC1Cc2c(-c3ccc(Cl)cn3)cccc2-c2c(O)ccc(C)c21 (stereo not shown) [Compound A19] | increased inhibitory activities | –
OCC1Cc2c(-c3cc(-c4ccccc4)ccn3)cccc2-c2c(O)ccc(-c3ccc(Br)cc3)c21 (stereo not shown) [Compound C1, 1-(4-bromophenyl)-10-(hydroxymethyl)-8-(4-phenylpyridin-2-yl)-9,10-dihydrophenanthren-4-ol] | – | metabolism by human cytochrome P450 enzymes (hCYPs), in words [2]: hardly metabolized; Inhibition mode (SARS-CoV-2 3CL^pro [3]): Mixed; inhibition manner (SARS-CoV-2 3CL^pro [3]): mixed-inhibition; gastrointestinal stability in SGF and SIF [4]: good gastrointestinal stabilities; metabolism by human hepatic UDP-glucuronosyltransferases (hUGTs), in words [5]: hardly metabolized; inhibitory effects against CYPs (major CYPs in HLMs): moderate inhibitory effects; plasma stability, in words [6]: prominent; also recorded: excellent plasma stability
CC(=O)OCC1Cc2c(cccc2-c2nccc3ccccc23)-c2c(O)ccc(C)c21 (stereo not shown) [Compound A21] | increased inhibitory activities | –
O=Cc1ccnc(-c2cccc3c2CC(CO)c2c(-c4ccc(Br)cc4)ccc(O)c2-3)c1 (stereo not shown) [Compound C2, 2-(8-(4-bromophenyl)-5-hydroxy-9-(hydroxymethyl)-9,10-dihydrophenanthren-1-yl)isonicotinaldehyde] | – | metabolism by human cytochrome P450 enzymes (hCYPs), in words [2]: readily metabolized; Inhibition mode (SARS-CoV-2 3CL^pro [3]): Mixed; inhibition manner (SARS-CoV-2 3CL^pro [3]): mixed-inhibition; gastrointestinal stability in SGF and SIF [4]: good gastrointestinal stabilities; metabolism by human hepatic UDP-glucuronosyltransferases (hUGTs), in words [5]: moderately metabolized
COc1ccc(-c2ccccn2)c2c1-c1c(O)ccc(C)c1C(COC(C)=O)C2 (stereo not shown) [Compound A9] | significant loss of potency | –
CC(=O)OCC1Cc2c(-c3ccccn3)ccc(C)c2-c2c(O)ccc(C)c21 (stereo not shown) [Compound A8] | significant loss of potency | –
OCC1Cc2c(-c3ccc(Cl)cn3)cccc2-c2c(O)ccc(-c3ccc(Br)cc3)c21 (stereo not shown) [Compound C5, 1-(4-bromophenyl)-8-(5-chloropyridin-2-yl)-10-(hydroxymethyl)-9,10-dihydrophenanthren-4-ol] | slight decreases in the inhibitory activity | –
CC(=O)OCC1Cc2c(-c3ccc(Br)cn3)cccc2-c2c(O)ccc(C)c21 (stereo not shown) [Compound A20] | increased inhibitory activities | –
CC(=O)OCC1Cc2c(-c3ccc4ccccc4n3)cccc2-c2c(O)ccc(C)c21 (stereo not shown) [Compound A23] | increased inhibitory activities | –
CC(=O)OCC1Cc2c(-c3cc4ccccc4cn3)cccc2-c2c(O)ccc(C)c21 (stereo not shown) [Compound A22] | increased inhibitory activities | –
CC(=O)OCC1Cc2c(cccc2-n2cccn2)-c2c(O)ccc(C)c21 (stereo not shown) [Compound A26] | no inhibitory activity | –
CC(=O)OCC1Cc2c(-c3ccccn3)ccc(F)c2-c2c(O)ccc(C)c21 (stereo not shown) [Compound A10] | significant loss of potency | –
OCC1Cc2c(-c3ccc(F)cn3)cccc2-c2c(O)ccc(-c3ccc(Br)cc3)c21 (stereo not shown) [Compound C4, 1-(4-bromophenyl)-8-(5-fluoropyridin-2-yl)-10-(hydroxymethyl)-9,10-dihydrophenanthren-4-ol] | slight decreases in the inhibitory activity | –
CC(=O)OCC1Cc2c(-c3ccncn3)cccc2-c2c(O)ccc(C)c21 (stereo not shown) [Compound A25] | no inhibitory activity | –
CC(=O)OCC1Cc2c(cccc2-c2ncnc3c2ncn3CC2CC2)-c2c(O)ccc(C)c21 (stereo not shown) [Compound A27] | no inhibitory activity | –
CC(=O)OCC1Cc2c(-c3cc(C)ccn3)cccc2-c2c(O)ccc(C)c21 (stereo not shown) [Compound A16] | comparable inhibitory activities with A1 | –
CC(=O)OCC1Cc2c(-c3ccc(F)cn3)cccc2-c2c(O)ccc(C)c21 (stereo not shown) [Compound A18] | comparable inhibitory activities with A1 | –
CC(=O)OCC1Cc2c(-c3ncccc3C)cccc2-c2c(O)ccc(C)c21 (stereo not shown) [Compound A15] | comparable inhibitory activities with A1 | –
CC(=O)OCC1Cc2c(-c3ncccn3)cccc2-c2c(O)ccc(C)c21 (stereo not shown) [Compound A24] | no inhibitory activity | –
C=CCn1cnc2c(-c3cccc4c3CC(COC(C)=O)c3c(C)ccc(O)c3-4)ncnc21 (stereo not shown) [Compound A28] | no inhibitory activity | –
CC(=O)OCC1Cc2c(-c3ccccn3)ccc(Br)c2-c2c(O)ccc(C)c21 (stereo not shown) [Compound A12] | significant loss of potency | –
